According to patent US4798787A, “Peptide antibodies and their use in detecting oncogene products” (Cetus Corporation, priority 1984, dated 1989):

Target: T1, p21 protein (v-Ki-ras p21, serine at position 12) (Kirsten murine sarcoma virus, UniProt P01117)
T1 construct: made in house; host or cells: E. coli (plasmid pINIII-ras, gift of M. Inouye, printed 'Inouge')
Assay: Inhibition by nucleotides of anti-p21ser antibody binding to p21 protein under mild denaturation conditions
Details: 10 mM nucleotide
Text: An alternative explanation is that the antibody binds at some distance from the GTP binding site and yet alters GTP binding by disturbing the tertiary structure of the protein. […] The invention herein is not limited to either explanation.

T1 sequence (P01117 whole entry): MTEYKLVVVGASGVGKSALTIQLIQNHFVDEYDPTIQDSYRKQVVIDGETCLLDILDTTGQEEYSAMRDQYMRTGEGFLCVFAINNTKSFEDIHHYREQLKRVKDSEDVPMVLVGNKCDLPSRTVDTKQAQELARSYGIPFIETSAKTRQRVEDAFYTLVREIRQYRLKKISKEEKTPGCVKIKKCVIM

Row | Compound | inhibition of the binding of anti-p21ser antibodies to p21 protein
1 | Nc1ncnc2c1ncn2[C@@H]1O[C@H](COP(=O)(O)OP(=O)(O)OP(=O)(O)O)[C@@H](O)[C@H]1O [ATP] | not
2 | Nc1nc2c(ncn2[C@@H]2O[C@H](COP(=O)(O)OP(=O)(O)OP(=O)(O)O)[C@@H](O)[C@H]2O)c(=O)[nH]1 [GTP, guanosine triphosphate] | substantially inhibit
